Assay results taken from ChEMBL document CHEMBL1781990, “Synthesis and pharmacological activity of O-aminoalkyl derivatives of 7-hydroxycoumarin” (2011).
In brackets after ≈: the same amount, converted by molar mass. Activity calls are given as the source filed them. The calls are words filed in the database; no cut-off is given here.

Legend:
Bacillus cereus [1] = experiment: Antibacterial against Bacillus cereus ATCC 11778 after 24 hrs by NCCLS M7-A6 method; format: functional; conditions: Bacillus cereus, ATCC 11778, 24 h; read-out: MIC
Micrococcus luteus [2] = experiment: Antibacterial against Micrococcus luteus ATCC 9341 at 20 mg/mL after 24 hrs by NCCLS M7-A6 method; format: functional, organism-based
Micrococcus luteus [3] = experiment: Antibacterial against Micrococcus luteus ATCC 10240 at 20 mg/mL after 24 hrs by NCCLS M7-A6 method; format: functional, organism-based
Bacillus subtilis [4] = experiment: Antibacterial against Bacillus subtilis ATCC 6633 at 20 mg/mL after 24 hrs by NCCLS M7-A6 method; format: functional, organism-based
Staphylococcus aureus [5] = experiment: Antibacterial against Staphylococcus aureus ATCC 6538 at 20 mg/mL after 24 hrs by NCCLS M7-A6 method; format: functional, organism-based
Staphylococcus aureus [6] = experiment: Antibacterial against Staphylococcus aureus ATCC 6538P at 20 mg/mL after 24 hrs by NCCLS M7-A6 method; format: functional, organism-based
Escherichia coli [7] = experiment: Antibacterial against Escherichia coli ATCC 8739 at 20 mg/mL after 24 hrs by NCCLS M7-A6 method; format: functional, organism-based
Escherichia coli [8] = experiment: Antibacterial against Escherichia coli ATCC 10536 at 20 mg/mL after 24 hrs by NCCLS M7-A6 method; format: functional, organism-based
Bacillus cereus [9] = experiment: Antibacterial against Bacillus cereus ATCC 11778 at 20 mg/mL after 24 hrs by NCCLS M7-A6 method; format: functional, organism-based
Micrococcus luteus [10] = experiment: Antibacterial against Micrococcus luteus ATCC 9341 after 24 hrs by NCCLS M7-A6 method; format: functional; conditions: Micrococcus luteus, ATCC 9341, 24 h; read-out: MIC
Bacillus subtilis [11] = experiment: Antibacterial against Bacillus subtilis ATCC 6633 after 24 hrs by NCCLS M7-A6 method; format: functional; conditions: Bacillus subtilis, ATCC 6633, 24 h; read-out: MIC
Staphylococcus aureus [12] = experiment: Antibacterial against Staphylococcus aureus ATCC 6538 after 24 hrs by NCCLS M7-A6 method; format: functional; conditions: ATCC 6538, 24 h
Staphylococcus aureus [13] = experiment: Antibacterial against Staphylococcus aureus ATCC 6538P after 24 hrs by NCCLS M7-A6 method; format: functional
Escherichia coli [14] = experiment: Antibacterial against Escherichia coli ATCC 10536 after 24 hrs by NCCLS M7-A6 method; format: functional; conditions: ATCC 10536, 24 h
CCRF-CEM = experiment: Cytotoxicity against human CCRF-CEM cells assessed as cell growth inhibition at 10^-5 M; format: functional, cell-based
HOP-92 = experiment: Cytotoxicity against human HOP92 cells assessed as cell growth inhibition at 10^-5 M; format: functional, cell-based
HCC 2998 = experiment: Cytotoxicity against human HCC2998 cells assessed as cell growth inhibition at 10^-5 M; format: functional, cell-based

| Structure (SMILES) | MIC (Bacillus cereus [1]) | Activity (Micrococcus luteus [2]) | Activity (Micrococcus luteus [3]) | Activity (Bacillus subtilis [4]) | Activity (Staphylococcus aureus [5]) | Activity (Staphylococcus aureus [6]) | Activity (Escherichia coli [7]) | Activity (Escherichia coli [8]) | Activity (Bacillus cereus [9]) | MIC (Micrococcus luteus [10]) | MIC (Bacillus subtilis [11]) | MIC (Staphylococcus aureus [12]) | MIC (Staphylococcus aureus [13]) | MIC (Escherichia coli [14]) | growth inhibition (GI) (CCRF-CEM) | growth inhibition (GI) (HOP-92) | growth inhibition (GI) (HCC 2998) |
| --- | --- | --- | --- | --- | --- | --- | --- | --- | --- | --- | --- | --- | --- | --- | --- | --- | --- |
| Cc1cc(=O)oc2cc(O)ccc12 [HYMECROMONE] | 85.1 mM (≈ 15 mg/mL) | inactive | inactive | inactive | inactive | inactive | inactive | inactive |  |  |  |  |  |  |  |  |  |
| CCN(CC)CCOc1ccc2c(C)cc(=O)oc2c1C(C)=O |  |  |  | inactive | inactive | inactive | inactive | inactive | inactive |  |  |  |  |  |  |  |  |
| CCN(CC)CCOc1cc2oc(=O)cc(C)c2cc1C(C)=O |  |  |  |  | inactive | inactive | inactive | inactive |  |  |  |  |  |  |  |  |  |
| CC(=O)c1cc2c(C)cc(=O)oc2cc1OCCN(C(C)C)C(C)C | 12.5 mM (≈ 4.32 mg/mL) |  |  |  | inactive | inactive | inactive | inactive |  | 37.5 mM (≈ 13 mg/mL) | 12.5 mM (≈ 4.32 mg/mL) |  |  |  |  |  |  |
| CC(=O)c1cc2c(C)cc(=O)oc2cc1OCCN(C)Cc1ccccc1 | 24.3 mM (≈ 8.88 mg/mL) |  |  |  |  |  |  |  |  | 1.5 mM (≈ 0.548 mg/mL) | 24.3 mM (≈ 8.88 mg/mL) | 24.3 mM (≈ 8.88 mg/mL) | 24.3 mM (≈ 8.88 mg/mL) | 24.3 mM (≈ 8.88 mg/mL) |  |  |  |
| Cc1cc(=O)oc2cc(OCCN3CCOCC3)ccc12 | 69.1 mM (≈ 20 mg/mL) |  |  |  | inactive |  |  |  |  | 8.6 mM (≈ 2.49 mg/mL) | 69.1 mM (≈ 20 mg/mL) |  | 69.1 mM (≈ 20 mg/mL) | 51.8 mM (≈ 15 mg/mL) |  |  |  |
| CC(=O)c1c(OCCN(C(C)C)C(C)C)ccc2c(C)cc(=O)oc12 |  |  | inactive | inactive | inactive | inactive | inactive | inactive | inactive | 25 mM (≈ 8.64 mg/mL) |  |  |  |  |  |  |  |
| CC(C)N(CCOc1ccc2ccc(=O)oc2c1)C(C)C | 30.7 mM (≈ 8.88 mg/mL) |  |  |  | inactive |  |  |  |  | 46 mM (≈ 13.3 mg/mL) | 46 mM (≈ 13.3 mg/mL) |  | 61.4 mM (≈ 17.8 mg/mL) | 46 mM (≈ 13.3 mg/mL) |  |  |  |
| CC(=O)c1c(OCCN(C)Cc2ccccc2)ccc2c(C)cc(=O)oc12 | 2.4 mM (≈ 0.877 mg/mL) |  |  |  |  |  | inactive |  |  | 6 mM (≈ 2.19 mg/mL) | 2.4 mM (≈ 0.877 mg/mL) | 35.7 mM (≈ 13 mg/mL) | 23.8 mM (≈ 8.7 mg/mL) | 35.7 mM (≈ 13 mg/mL) |  |  |  |
| CCN(CC)CCOc1ccc2ccc(=O)oc2c1 | 8.4 mM (≈ 2.2 mg/mL) |  |  |  | inactive |  |  |  |  | 8.4 mM (≈ 2.2 mg/mL) | 8.4 mM (≈ 2.2 mg/mL) |  | 67.2 mM (≈ 17.6 mg/mL) | 16.8 mM (≈ 4.39 mg/mL) |  |  |  |
| CC(=O)c1cc2c(C)cc(=O)oc2cc1OCCN1CCOCC1 | 30.2 mM (≈ 10 mg/mL) |  |  |  |  |  |  |  |  | 30.2 mM (≈ 10 mg/mL) | 30.2 mM (≈ 10 mg/mL) | 30.2 mM (≈ 10 mg/mL) | 30.2 mM (≈ 10 mg/mL) | 30.2 mM (≈ 10 mg/mL) | Active | Active | Active |
| O=c1ccc2ccc(O)cc2o1 |  | inactive | inactive | inactive | inactive | inactive | inactive | inactive | inactive |  |  |  |  |  |  |  |  |
| CC(=O)c1c(OCCN2CCCCC2)ccc2c(C)cc(=O)oc12 | 26.1 mM (≈ 8.6 mg/mL) |  |  |  |  |  |  |  |  | 6.5 mM (≈ 2.14 mg/mL) | 39.1 mM (≈ 12.9 mg/mL) | 39.1 mM (≈ 12.9 mg/mL) | 39.1 mM (≈ 12.9 mg/mL) | 13 mM (≈ 4.28 mg/mL) |  |  |  |
| O=c1ccc2ccc(OCCN3CCOCC3)cc2o1 | 72.6 mM (≈ 20 mg/mL) |  |  |  |  |  |  |  |  | 18.2 mM (≈ 5.01 mg/mL) | 72.6 mM (≈ 20 mg/mL) | 72.6 mM (≈ 20 mg/mL) | 36.3 mM (≈ 9.99 mg/mL) | 36.3 mM (≈ 9.99 mg/mL) |  |  |  |
| CC(=O)c1c(O)ccc2c(C)cc(=O)oc12 | 22.9 mM (≈ 5 mg/mL) |  |  |  |  | inactive | inactive | inactive |  | 68.7 mM (≈ 15 mg/mL) | 45.8 mM (≈ 9.99 mg/mL) | 68.7 mM (≈ 15 mg/mL) |  |  |  |  |  |
